According to patent publication US8772499B2, “TRPV3 modulators” (AbbVie Inc., priority 2011, dated 2014):
Read-outs that look alike come from different tables or passages of the source.

What was measured:
[1] = In vitro rat microsomal stability assay; format: in vitro ADME, rat (Sprague-Dawley)
Outline: (§1)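 NADPH-fortified liver microsome incubations at 37° C. served for both species: Sprague-Dawley rat and human.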

human TRPV3 = biological target: T1, human TRPV3 (Homo sapiens, UniProt Q8NET8); experiment: In vitro antagonism of recombinant human TRPV3 activation (FLIPR Tetra calcium assay); format: cell-based; conditions: HEK293 cells stably expressing human TRPV3, agonist 2-APB at 80 μM
T1 construct: expressed in transfected cells
T1 sequence (Q8NET8 1-790): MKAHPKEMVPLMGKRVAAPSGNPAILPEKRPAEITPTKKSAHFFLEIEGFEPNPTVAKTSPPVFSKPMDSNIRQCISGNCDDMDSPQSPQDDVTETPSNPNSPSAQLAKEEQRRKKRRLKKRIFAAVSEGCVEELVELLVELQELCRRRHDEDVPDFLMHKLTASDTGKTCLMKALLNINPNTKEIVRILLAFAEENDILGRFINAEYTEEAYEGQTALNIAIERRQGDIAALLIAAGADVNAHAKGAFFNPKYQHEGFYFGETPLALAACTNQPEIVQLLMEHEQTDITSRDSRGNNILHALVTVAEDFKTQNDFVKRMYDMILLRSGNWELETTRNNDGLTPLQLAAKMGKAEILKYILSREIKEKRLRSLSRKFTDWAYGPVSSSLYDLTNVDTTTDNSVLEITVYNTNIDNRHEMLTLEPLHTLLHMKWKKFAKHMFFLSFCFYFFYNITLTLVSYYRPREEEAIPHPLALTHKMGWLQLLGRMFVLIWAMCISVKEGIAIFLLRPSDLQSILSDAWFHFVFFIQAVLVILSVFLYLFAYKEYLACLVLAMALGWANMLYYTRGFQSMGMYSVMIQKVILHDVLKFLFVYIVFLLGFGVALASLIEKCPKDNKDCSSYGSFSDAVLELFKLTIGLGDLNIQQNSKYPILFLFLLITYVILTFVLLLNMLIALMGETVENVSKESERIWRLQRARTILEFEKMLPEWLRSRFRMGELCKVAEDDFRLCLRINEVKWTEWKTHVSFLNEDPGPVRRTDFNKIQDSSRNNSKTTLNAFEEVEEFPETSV
Outline: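 HEK293 cells stably expressing human TRPV3, loaded with Calcium-4 dye for 90–120 min, received compound in DPBS, then 80 μM 2-APB (EC80) 3 min later. Max-minus-min fluorescence expressed as % of 2-APB response without antagonist; IC50 values mostly averages of n≥2 runs.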

[2] = In vitro human microsomal stability assay; format: in vitro ADME
Outline: as §1

[3] = Sprague-Dawley, rat, microsomes, 0.5 h, 0.5 μM, pH 7.4
[4] = actual measured value shown parenthetically, in most cases average of at least two runs, read-out: IC50
[5] = human, microsomes, 0.5 h, 0.5 μM, pH 7.4

RAT MICROSOMAL STABILITY (% REMAINING AFTER 30 MINUTES) [1, 3] [%]	IC50 (human TRPV3; [4]) [µM]	HUMAN MICROSOMAL STABILITY (% REMAINING AFTER 30 MINUTES) [2, 5] [%]	IC50 (human TRPV3; reported range, read-out: IC50 (range class)) [µM]	Compound	RAT MICROSOMAL STABILITY (% REMAINING AFTER 30 MINUTES) ([1]; rat liver microsomes (Sprague-Dawley), 0.5 μM substrate, 0.25 mg/mL microsomal protein, pH 7.4, 37° C., NADPH, 30 minutes) [%]	HUMAN MICROSOMAL STABILITY (% REMAINING AFTER 30 MINUTES) ([2]; human liver microsomes, 0.5 μM substrate, 0.25 mg/mL microsomal protein, pH 7.4, 37° C., NADPH, 30 minutes) [%]
0.73	0.38	0.13		Cc1cccc(C2(C(O)c3ccccn3)CCC2)c1 (stereo not shown) [Example 8, [1-(3-methylphenyl)cyclobutyl](pyridin-2-yl)methanol]		
0.64	0.32	17		OC(c1ccccn1)C1(c2cccc(F)c2)CCC1 (stereo not shown) [Example 2, [1-(3-fluorophenyl)cyclobutyl](pyridin-2-yl)methanol]		
50	2.42	18		O=C1CC(c2ccc(Cl)c(Cl)c2)([C@H](O)c2ccccn2)C1 [Example 117, 3-(3,4-dichlorophenyl)-3-[(S)-hydroxy(pyridin-2-yl)methyl]cyclobutanone]		
15	1.4	13		O[C@H](c1ccccn1)C1(c2ccc(C(F)(F)F)cc2F)CCC1 [Example 27, (S)-{1-[2-fluoro-4-(trifluoromethyl)phenyl]cyclobutyl}(pyridin-2-yl)-methanol]		
11	0.74	51		O[C@H](c1ncccn1)C1(c2ccc(Cl)c(Cl)c2)CCC1 [Example 39, (S)-[1-(3,4-dichlorophenyl)cyclobutyl](pyrimidin-2-yl)methanol]		
<0.01	5.82	<0.01		OC(C1CCCc2cccnc21)C1(c2ccc(F)c(F)c2)CCC1 (single isomer, unassigned) [Example 169, (anti)-[1-(3,4-difluorophenyl)cyclobutyl][5,6,7,8-tetrahydroquinolin-8-yl]-methanol]		
30	> 10	33		O/N=C(\c1ccccn1)C1(c2ccc(Cl)c(Cl)c2)CCC1 [Example 230, (Z)-[1-(3,4-dichlorophenyl)cyclobutyl](pyridin-2-yl)methanone oxime]		
68	3.99	73		N[C@H]1CCC[C@H]1[C@H](O)C1(c2ccc(Cl)c(Cl)c2)CCC1 [Example 217, (S)-[(1R,2S)-2-aminocyclopentyl][1-(3,4-dichlorophenyl)cyclobutyl]-methanol]		
8.6	2.19	62		OC(c1ccccn1)C1(c2nc3ccccc3o2)CCC1 (stereo not shown) [Example 271, [1-(1,3-benzoxazol-2-yl)cyclobutyl](pyridin-2-yl)methanol]		
76	5.61	82		OC(c1ccccn1)C1(c2ccc(C(F)(F)F)nc2)CCC1 (stereo not shown) [Example 85, pyridin-2-yl{1-[6-(trifluoromethyl)pyridin-3-yl]cyclobutyl}methanol]		

The remaining lines, values behind:

Compound	RAT MICROSOMAL STABILITY (% REMAINING AFTER 30 MINUTES) [1, 3] [%]	IC50 (human TRPV3; [4]) [µM]	HUMAN MICROSOMAL STABILITY (% REMAINING AFTER 30 MINUTES) [2, 5] [%]	IC50 (human TRPV3; reported range, read-out: IC50 (range class)) [µM]	RAT MICROSOMAL STABILITY (% REMAINING AFTER 30 MINUTES) ([1]; rat liver microsomes (Sprague-Dawley), 0.5 μM substrate, 0.25 mg/mL microsomal protein, pH 7.4, 37° C., NADPH, 30 minutes) [%]	HUMAN MICROSOMAL STABILITY (% REMAINING AFTER 30 MINUTES) ([2]; human liver microsomes, 0.5 μM substrate, 0.25 mg/mL microsomal protein, pH 7.4, 37° C., NADPH, 30 minutes) [%]
OC(c1ccccn1)C1(c2cccc(C(F)(F)F)c2)CC(F)(F)C1 (stereo not shown) [Example 113, {3,3-difluoro-1-[3-(trifluoromethyl)phenyl]cyclobutyl}(pyridin-2-yl)-methanol]	18	0.26	24			
NC1CCCC1C(O)C1(c2ccc(OC(F)(F)F)cc2)CCC1 (stereo not shown) [Example 206, (2-aminocyclopentyl) {1-[4-(trifluoromethoxy)phenyl]cyclobutyl}methanol]	62	2.63	83			
OC(C1CCCc2cccnc21)C1(c2ccc(OC(F)(F)F)cc2)CCC1 (single isomer, unassigned) [Example 178, (syn)-5,6,7,8-tetrahydroquinolin-8-yl{1-[4-(trifluoromethoxy)phenyl]-cyclobutyl}methanol]	<0.01	> 20	9.2	> 20		
N[C@@H]1CCC[C@H]1[C@@H](O)C1(c2cccc(C(F)(F)F)c2)CCC1 [Example 227, (R)-[(1R,2R)-2-aminocyclopentyl]{1-[3-(trifluoromethyl)phenyl]-cyclobutyl}methanol]	42	0.5	>85			
OC(c1ccccn1)C1(c2ccc(Oc3ccccc3)cc2)CCC1 (stereo not shown) [Example 24, [1-(4-phenoxyphenyl)cyclobutyl](pyridin-2-yl)methanol]	17	4.7	20			
OC1CC(c2ccnc(C(F)(F)F)c2)(C(O)c2ccccn2)C1 [Example 305, cis-3-[(S)-hydroxy(pyridin-2-yl)methyl]-3-[2-(trifluoromethyl)pyridin-4-yl]-cyclobutanol]	49	0.29	63			
OC(c1ccccn1)C1(Cc2cccc(F)c2)CCC1 (stereo not shown) [Example 254, [1-(3-fluorobenzyl)cyclobutyl](pyridin-2-yl)methanol]	0.57	4.22	1.1			
OC1CC(c2cccc(OC(F)(F)F)c2)(C(O)c2ccccn2)C1 (single isomer, unassigned) [Example 273]	65	0.09	42			
O=C1CC(c2ccc(C(F)(F)F)cc2)(C(O)c2ccccn2)C1 (stereo not shown) [Example 160, 3-[hydroxy(pyridin-2-yl)methyl]-3-[4-(trifluoromethyl)phenyl]-cyclobutanone]	60	6.11	>85			
Cl.O[C@H](c1ccccn1)C1(c2ccc(Cl)c(Cl)c2)CC(F)(F)C1 [Example 111, (S)-[1-(3,4-dichlorophenyl)-3,3-difluorocyclobutyl](pyridin-2-yl)methanol hydrochloride]		0.19			23	52
OC1CC(c2cccc(OC(F)(F)F)c2)(C(O)c2ccccn2)C1 (single isomer, unassigned) [Example 272]	48	0.19	54			
OC(c1ccccn1)C1(c2ccc(C(F)(F)F)cc2)CC2(C1)OCCO2 (stereo not shown) [Example 161, pyridin-2-yl{2-[4-(trifluoromethyl)phenyl]-5,8-dioxaspiro[3.4]oct-2-yl}-methanol]	<0.01	3.27	61			
N[C@@H]1CCC[C@@H]1[C@@H](O)C1(c2ccc(OC(F)(F)F)cc2)CCC1 [Example 221, (R)-[(1S,2R)-2-aminocyclopentyl]{1-[4-(trifluoromethoxy)phenyl]-cyclobutyl}methanol]	56	1.8	83			
